Experimental data reported in paper PMC5874699, “Antimicrobial and Antibiofilm Activity of UP-5, an Ultrashort Antimicrobial Peptide Designed Using Only Arginine and Biphenylalanine” (Pharmaceuticals, 2018).

Legend:
[1] = system: methicillin-resistant S. aureus (MRSA) (ATCC 33591); assay: MIC/MBC, microbroth dilution (CLSI); type: cell-based, Staphylococcus aureus; conditions: S. aureus ATCC 33591, antibiotic alone, triplicate
Source text: (§1) All bacterial susceptibility, biofilm, and synergistic assays of peptides, antibiotics, and peptides-antibiotics combinations used bacterial strains obtained from the American Type Tissue Culture Collection (ATCC, Manassas, VA, USA) that states the mechanism of resistance for each strain according to ATCC number. Gram-positive bacteria were represented by five strains, the wild type strain Staphylococcus aureus (ATCC 29213) and methicillin-resistant S. aureus (MRSA) (ATCC 33591) in addition to clinically isolated strains S. aureus (ATCC BAA-41& 43300) and Enterococcus faecalis (ATCC BAA-2316). The Gram-negative bacteria strains were represented by wild type strains of Escherichia coli (ATCC 25922 & 35218) and Pseudomonas aeruginosa (ATCC 27853) as well as the clinically isolated multidrug-resistant strain P. aeruginosa (ATCC BAA-2114). The bacteria were cultured onto Muller Hinton Agar (Scharlab, S.L, Barcelona, Spain). Mueller Hinton Broth (Oxoid Ltd., Basingstoke, UK) was used to prepare all bacterial suspensions and to dissolve the peptides and the antibiotics. The assay was performed in sterile 96-well polypropylene microtiter plates.
(§2) All bacterial susceptibility assays were conducted according to the microbroth dilution method outlined by the Clinical and Laboratory Standards Institute (CLSI) guidelines.
(§3) Briefly, pre-sterilized MHB was used as a growth medium for organisms obtained from stock media with glycerol. Bacterial cells were grown overnight in MHB and diluted to 10^6 CFU/mL in the same medium prior to use. For peptide, serial concentrations in the range of 0.5–100 μM were prepared. Then, 50 μL of each peptide concentration and 50 µL of diluted bacterial suspension were added to each well of a 96-well microtiter plate. Peptide solutions were prepared by dissolving the peptide in sterile MHB. Then, the plates were incubated overnight in a humidified atmosphere, and at 37 °C. Bacterial growth was determined by measuring the optical density (OD) at λ = 600 nm using an ELISA plate reader (Epoch, BioTek, Winooski, VT, USA) and the minimum inhibitory concentration (MIC) was determined.
(§4) As described in the previous section, the MIC and MBC values of antibiotics employed in this study were determined against subjected bacterial strains via preparing different concentrations of each antibiotic.

S. aureus (ATCC BAA-41) [2] = type: cell-based, Staphylococcus aureus; conditions: S. aureus ATCC BAA-41, antibiotic alone, triplicate
Source text: as §1, §2, §3, §4

S. aureus (ATCC 43300) [3] = type: cell-based, Staphylococcus aureus; conditions: S. aureus ATCC 43300, antibiotic alone, triplicate
Source text: as §1, §2, §3, §4

[4] = system: P. aeruginosa (ATCC BAA-2114); assay: Broth microdilution checkerboard, UP-5 with antibiotics; type: cell-based, Pseudomonas aeruginosa
Source text: as §1
(§5) According to the broth microdilution checkerboard technique, the MIC and MBC values of peptide-antibiotics combinations against wild type and multidrug resistant bacterial strains were determined. Serial concentrations of peptide and each antibiotic were prepared in the range of 0.005–100 μM. In each well of a 96-well microtiter plate, 25 μL of each peptide concentration were added to 25 μL of each antibiotic concentration which is followed by adding 50 μL of diluted bacterial suspension (10^6 CFU/mL) to each well. The prepared concentrations of peptide and each antibiotic were arranged into rows and columns, respectively, in a 96-well microtiter plate according the checkerboard technique. Then as described previously (see Section 2.4.1), the procedure was followed. All MIC and MBC determinations of all assays were made in triplicate.
(§6) The fractional inhibitory concentration (FIC) is defined as the inhibitory concentration of the antimicrobial combination divided by that of the single antimicrobial component. To calculate FIC index for peptide-antibiotic combinations, the following equation was used:(1) FIC index=MIC of drug X in combination/MIC of drug X alone+MIC of drug Y in combination/MIC of drug Y alone
(§7) The FIC indices were interpreted as follows: ≤0.5: synergistic activity, 0.5–1: additive activity, 1–4 indifferent, >4: antagonism. Interpretation and assessment of the FIC indices were performed according to the broth microdilution checkerboard technique.

[5] = system: P. aeruginosa (ATCC BAA-2114); type: cell-based, Pseudomonas aeruginosa; conditions: P. auroginosa ATCC BAA-2114; antibiotic alone, 99.9% killing, triplicate
Source text: as §1, §2, §3, §4

[6] = system: Staphylococcus aureus (ATCC 29213); type: cell-based; conditions: S. aureus ATCC 29213, antibiotic alone, triplicate
Source text: as §1, §2, §3, §4

S. aureus (ATCC BAA-41) [7] = assay: Broth microdilution checkerboard, UP-5 with antibiotics; type: cell-based, Staphylococcus aureus; conditions: S. aureus ATCC BAA-41; antibiotic MIC in combination with UP-5 compared to MIC alone
Source text: as §1, §5, §6, §7

S. aureus (ATCC 33591) = assay: as above; type: cell-based, Staphylococcus aureus; conditions: S. aureus ATCC 33591
Source text: as §1, §5, §6, §7

S. aureus (ATCC 43300) [8] = assay: as above; type: cell-based, Staphylococcus aureus; conditions: S. aureus ATCC 43300
Source text: as §1, §5, §6, §7

S. aureus (ATCC 29213) = assay: as above; type: cell-based, Staphylococcus aureus; conditions: S. aureus ATCC 29213
Source text: as §1, §5, §6, §7

[9] = antibiotic MIC in combination with UP-5 compared to MIC alone
[10] = antibiotic in combination with UP-5, checkerboard, triplicate

`CC[C@H]1OC(=O)[C@H](C)[C@@H](O[C@H]2C[C@@](C)(OC)[C@@H](O)[C@H](C)O2)[C@H](C)[C@@H](O[C@@H]2O[C@H](C)C[C@H](N(C)C)[C@H]2O)[C@](C)(O)C[C@@H](C)C(=O)[C@H](C)[C@@H](O)[C@]1(C)O` [Erythromycin, erythromycin] was tested, and the “Antibiotics MBC Alone” value ([1]; 99.9% killing) was 10 µM, the “Antibiotics MIC Alone” value ([1]; microbroth dilution) was 8 µM and the “Antibiotics MBC Alone” value (S. aureus (ATCC BAA-41) [2]; 99.9% killing) was 400 µM. The “Antibiotics MIC Alone” value (S. aureus (ATCC BAA-41) [2]; microbroth dilution) was 350 µM, the “Antibiotics MBC Alone” value (S. aureus (ATCC 43300) [3]; 99.9% killing) was 150 µM and the “Antibiotics MIC Alone” value (S. aureus (ATCC 43300) [3]; microbroth dilution) was 100 µM. The “Effect of the combination according to FIC value” ([4]; P. aeruginosa (ATCC 2114 as printed), antibiotic-UP-5 combination) was “additive (0.5–1: additive activity)”, the “Antibiotics Reduction in MIC (%)” value ([4]; P. auroginosa ATCC BAA-2114, antibiotic MIC in combination with UP-5 compared to MIC alone) was 60% and the “Antibiotics MIC in Combination” value ([4]; P. auroginosa ATCC BAA-2114, antibiotic in combination with UP-5, checkerboard, triplicate) was 50 µM. The “Antibiotics MBC Alone” value [5] was 150 µM, the “Antibiotics MBC Alone” value ([6]; 99.9% killing) was 1.5 µM and the “Antibiotics MIC Alone” value ([6]; microbroth dilution) was 0.5 µM. For the same compound, the “Antibiotics Reduction in MIC (%)” value (S. aureus (ATCC BAA-41) [7]) was 64.3%, the “Antibiotics Reduction in MIC (%)” value (S. aureus (ATCC 33591); [9]) was <50% and the “Antibiotics MIC in Combination” value (S. aureus (ATCC 33591); [10]) was 8 µM. For the same compound, the “Antibiotics Reduction in MIC (%)” value (S. aureus (ATCC 43300) [8]; [9]) was <50%, the “Antibiotics MIC in Combination” value (S. aureus (ATCC 43300) [8]; [10]) was 100 µM and the “Antibiotics Reduction in MIC (%)” value (S. aureus (ATCC 29213); [9]) was <50%. The “Antibiotics MIC in Combination” value (S. aureus (ATCC 29213); [10]) was 0.5 µM.
